Reference: PubChem BioAssay (NCI)
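Tested at 5 concentrations; 48 h exposure; 96-well plates; endpoints linearly interpolated, else capped at highest concentration. GI50: concentration for 50% inhibition of growth. TGI marks complete inhibition of growth.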

Assays:
Test in all cases: NCI anticancer screen, dose series, 48 h
[1] = system: 786-0 renal
[2] = system: ACHN renal
[3] = system: HCT-15 colon
[4] = system: IGROV1 ovarian
[5] = system: NCI-H226 lung
[6] = system: NCI-H522 lung
[7] = system: OVCAR-3 ovarian
[8] = system: SK-MEL-28 melanoma
[9] = system: U251 CNS
[10] = system: UO-31 renal

COc1ccc(-c2cnc(SCC(=O)c3c(C)n(C)n(-c4ccccc4)c3=O)n2-c2ccc(OC)cc2)cc1
GI50 [1]: > 50 µM
TGI [1]: > 50 µM
GI50 [2]: > 50 µM
TGI [2]: > 50 µM
GI50 [3]: > 50 µM
TGI [3]: > 50 µM
GI50 [4]: > 50 µM
TGI [4]: > 50 µM
GI50 [5]: > 50 µM
TGI [5]: > 50 µM
GI50 [6]: > 50 µM
TGI [6]: > 50 µM
GI50 [7]: > 50 µM
TGI [7]: > 50 µM
GI50 [8]: > 50 µM
TGI [8]: > 50 µM
GI50 [9]: > 50 µM
TGI [9]: > 50 µM
GI50 [10]: > 50 µM
TGI [10]: > 50 µM

O=C(/C=C/c1ccccc1)Nc1ncc(Cc2ccccc2)s1
GI50 [1]: 0.598 µM
TGI [1]: 10.7 µM
GI50 [2]: 0.4 µM
TGI [2]: 31.4 µM
GI50 [3]: 0.066 µM
TGI [3]: > 100 µM
GI50 [4]: 0.491 µM
TGI [4]: > 64.5 µM
GI50 [5]: 1.16 µM
TGI [5]: > 20.8 µM
GI50 [6]: 0.112 µM
TGI [6]: 3.83 µM
GI50 [7]: 0.258 µM
TGI [7]: 1.44 µM
GI50 [8]: 1.7 µM
TGI [8]: > 100 µM
GI50 [9]: 0.271 µM
TGI [9]: 6.25 µM
GI50 [10]: 0.463 µM
TGI [10]: 23.3 µM

O=C(CC(O)c1cccnc1)CC(O)c1cccnc1 (stereo not given)
TGI [1]: 39.2 µM
TGI [2]: 35.3 µM
TGI [3]: 29.6 µM
TGI [4]: 29.9 µM
TGI [5]: > 100 µM
TGI [6]: 32.1 µM
TGI [7]: 28.1 µM
TGI [8]: 44.2 µM
TGI [9]: 33 µM
TGI [10]: 32.5 µM

CC(/C=C/C=C\C=C\C=C(/C)C(=O)NC(C)CO)=C\C(C)C(O)/C(C)=C/C(C)CCc1ccccc1 (stereo not given)
TGI [1]: 26.4 µM
TGI [2]: 21.9 µM
TGI [3]: 31.1 µM
TGI [4]: 20.1 µM
TGI [5]: 26.5 µM
TGI [6]: 17.6 µM
TGI [7]: 20 µM
TGI [8]: 25.9 µM
TGI [9]: 37.9 µM
TGI [10]: 27.3 µM

C[C@]12CC[C@H](OC(=O)Cc3ccc(N(CCCl)CCCl)cc3)CC1CC[C@@H]1C2CC[C@]2(C)NC(=O)CCC12 (stereo not given in full)
TGI [1]: 29 µM
TGI [2]: 27.7 µM
TGI [3]: 30.6 µM
TGI [4]: 30.5 µM
TGI [5]: 69.6 µM
TGI [6]: 25.4 µM
TGI [7]: 14.8 µM
TGI [8]: 31.9 µM
TGI [9]: 29.3 µM
TGI [10]: > 100 µM

COc1ccc(Nc2[nH]n(C3=Nc4ccccc4Sc4ccccc43)c(=O)c2C#N)cc1
GI50 [1]: 2.67 µM
TGI [1]: 22.3 µM
GI50 [2]: 1.15 µM
TGI [2]: > 100 µM
GI50 [3]: 1.87 µM
TGI [3]: 34.1 µM
GI50 [4]: 2.79 µM
TGI [4]: > 100 µM
GI50 [5]: 1.48 µM
TGI [5]: 9.81 µM
GI50 [6]: 0.4 µM
TGI [6]: 3.87 µM
GI50 [7]: 1.78 µM
TGI [7]: 8.64 µM
GI50 [8]: 3.87 µM
TGI [8]: > 100 µM
GI50 [9]: 2.5 µM
TGI [9]: 43.3 µM
GI50 [10]: 1.02 µM
TGI [10]: > 100 µM

O=c1[nH]ccc2nc(N3CCC(O)CC3)nc(Nc3ccc(N4CCOCC4)cc3)c12
GI50 [1]: > 22.6 µM
TGI [1]: > 100 µM
GI50 [2]: 0.797 µM
TGI [2]: > 100 µM
GI50 [3]: 1.24 µM
TGI [3]: > 100 µM
GI50 [4]: 0.584 µM
TGI [4]: > 100 µM
GI50 [5]: > 100 µM
TGI [5]: > 100 µM
GI50 [6]: > 100 µM
TGI [6]: > 100 µM
GI50 [7]: 29.1 µM
TGI [7]: > 100 µM
GI50 [8]: > 100 µM
TGI [8]: > 100 µM
GI50 [9]: > 81 µM
TGI [9]: > 100 µM
GI50 [10]: 0.374 µM
TGI [10]: > 100 µM

CC[C@]12C=CCN3CC[C@@]4(c5ccc(OC)cc5N(C)[C@H]4[C@@](O)(C(=O)OC)[C@@H]1OC(=O)CCCC[P+](c1ccccc1)(c1ccccc1)c1ccccc1)[C@@H]32
GI50 [1]: 2.33 µM
TGI [1]: 6.74 µM
GI50 [2]: 14 µM
TGI [2]: 30.1 µM
GI50 [3]: 19.4 µM
TGI [3]: 43.6 µM
GI50 [4]: 0.486 µM
TGI [4]: 1.98 µM
GI50 [5]: 2.12 µM
TGI [5]: 9.74 µM
GI50 [6]: 0.295 µM
TGI [6]: 1.77 µM
GI50 [7]: 0.41 µM
TGI [7]: 2.23 µM
GI50 [8]: 0.52 µM
TGI [8]: 1.84 µM
GI50 [9]: 0.441 µM
TGI [9]: 4.4 µM
GI50 [10]: 12.8 µM
TGI [10]: 26.4 µM

O=S1(=O)OCc2ccccc21
TGI [1]: > 100 µM
TGI [2]: > 100 µM
TGI [3]: > 100 µM
TGI [4]: > 100 µM
TGI [5]: > 100 µM
TGI [6]: > 100 µM
TGI [7]: > 100 µM
TGI [8]: > 100 µM
TGI [9]: > 100 µM
TGI [10]: > 100 µM

OCCNC(=S)Nc1ccc(-c2nc(N3C[C@H]4CC[C@@H](C3)O4)c3cccn3n2)cc1
GI50 [1]: 0.0677 µM
TGI [1]: 12.8 µM
GI50 [2]: 0.0502 µM
TGI [2]: 1.86 µM
GI50 [3]: 0.0906 µM
TGI [3]: 14.4 µM
GI50 [4]: 0.0165 µM
TGI [4]: 0.15 µM
GI50 [5]: 0.0305 µM
TGI [5]: 0.714 µM
GI50 [6]: 0.029 µM
TGI [6]: 3.37 µM
GI50 [7]: 0.0664 µM
TGI [7]: 4.39 µM
GI50 [8]: 0.028 µM
TGI [8]: 0.499 µM
GI50 [9]: 0.114 µM
TGI [9]: 11.6 µM
GI50 [10]: < 0.0152 µM
TGI [10]: 0.194 µM

Nc1c(C(=O)c2cccc(C(O)(CO)CO)c2)cnn1-c1ccc(F)cc1
GI50 [1]: > 25 µM
TGI [1]: > 25 µM
GI50 [2]: > 25 µM
TGI [2]: > 25 µM
GI50 [3]: > 25 µM
TGI [3]: > 25 µM
GI50 [4]: > 25 µM
TGI [4]: > 25 µM
GI50 [5]: > 25 µM
TGI [5]: > 25 µM
GI50 [6]: > 25 µM
TGI [6]: > 25 µM
GI50 [7]: > 25 µM
TGI [7]: > 25 µM
GI50 [8]: > 25 µM
TGI [8]: > 25 µM
GI50 [9]: > 25 µM
TGI [9]: > 25 µM
GI50 [10]: > 25 µM
TGI [10]: > 25 µM

Cc1ccc(C(=O)Nc2ccc(CN3CCN(C)CC3)c(C(F)(F)F)c2)cc1C#Cc1cnc(N)c2ccc(C#N)cc12
GI50 [1]: 0.426 µM
TGI [1]: 3.79 µM
GI50 [2]: 0.0182 µM
TGI [2]: 6.23 µM
GI50 [3]: 0.0558 µM
TGI [3]: 8.77 µM
GI50 [4]: 0.0188 µM
TGI [4]: 9.55 µM
GI50 [5]: 0.471 µM
TGI [5]: > 50 µM
GI50 [6]: 0.605 µM
TGI [6]: > 25.2 µM
GI50 [7]: 1.25 µM
TGI [7]: 19.2 µM
GI50 [8]: 0.108 µM
TGI [8]: 3.47 µM
GI50 [9]: 0.393 µM
TGI [9]: 9.23 µM
GI50 [10]: 0.0224 µM
TGI [10]: 2.26 µM

Cc1cc(C)nc(NS(=O)(=O)c2ccc(Nc3nc4nc(NCc5ccccc5)nc(-c5ccc(O)cc5)c4c(=O)[nH]3)cc2)n1
GI50 [1]: 66.7 µM
TGI [1]: > 100 µM
GI50 [2]: 29.6 µM
TGI [2]: > 100 µM
GI50 [3]: 32.4 µM
TGI [3]: > 100 µM
GI50 [4]: 0.663 µM
TGI [4]: 7.52 µM
GI50 [5]: 55.8 µM
TGI [5]: > 100 µM
GI50 [6]: 2.61 µM
TGI [6]: 22.8 µM
GI50 [7]: 6.18 µM
TGI [7]: 29.5 µM
GI50 [8]: 13.4 µM
TGI [8]: > 100 µM
GI50 [9]: 36.7 µM
TGI [9]: > 100 µM
GI50 [10]: 6.39 µM
TGI [10]: > 100 µM
